Data reported in patent publication US20250269039A1, “THERAPEUTIC-OLIGONUCLEOTIDES ACTIVATED BY NUCLEASES” (priority 2020, published 2025).
≈ marks a conversion by molar mass, not a printed value. Like-named read-outs stand apart in the source and are kept apart here.

How the values were obtained:
[1] = Complete blood counts of infected/treated mice; conditions: for percentage of neutrophils in blood: infected treated mice, after 24 hours, FIG. 7i; for BAS / BAS % / EO / EO % / HCT / HGB / LYM / LYM % / MCH / MCHC / MCV / MON / MON % / NE / NE % / PLT / RBC / RET / RET % / WBC: infected/treated mice, blood after 24 hours, AVG, n = 4; for change of red blood cells (RBCs), hematocrit and hemoglobin (acute blood toxicity): treated mice versus uninfected and placebo groups, FIG. 11
[2] = test system: S. epidermidis ATCC 35984; experiment: Broth microdilution MIC and growth inhibition (control bacteria); type: cell-based, Staphylococcus epidermidis; conditions: for MIC: 18 h, TOUCAN as NA equivalent
Text: Bacteria strains. S. aureus NCTC 12493 (MRSA), S. aureus ATCC 29213 (MSSA), S. aureus ATCC 43300 (MRSA), S. aureus ATCC 1707 (MRSA), S. aureus ATCC 1717 (MRSA), S. aureus ATCC 1747 (MRSA), S. aureus ATCC 1761 (MRSA), S. aureus ATCC 1766 (MRSA), S. aureus ATCC 1768 (MRSA), S. epidermidis ATCC 35984, E. coli ATCC 25922, K. pneumoniae ATCC 13883, P. mirabilis ATCC 25933, S. enterica ATCC 14028 and P. aeruginosa ATCC 10145 strains were used in this study. Bacteria were initially inoculated onto tryptone soy agar with 5% defibrinated sheep blood (Thermo Fisher Scientific, Inc., Waltham, MA, USA) and incubated at 37° C. for 24 hours. Then, single colonies of each strain were transferred to tryptone soy broth (Thermo Fisher Scientific) for the nuclease activity assay or antimicrobial susceptibility testing, respectively.
(§1) Antimicrobial susceptibility testing. Minimal inhibitory concentrations (MIC) of all nucleoside analogues and TOUCANs against each bacteria strain were determined using broth microdilution method. A single colony obtained from overnight culture on tryptone soy agar with 5% defibrinated sheep blood was inoculated in cation-adjusted Mueller Hinton Broth and adjusted to 10^6 CFU/mL. TOUCANs were prepared in PBS+/+ (treatment) and serial dilutions were made in 96-well polystyrene round bottom microwell plates with 50 μL final volume for each concentration. PBS+/+ was used as untreated control. Next, 50 μL bacteria solutions were added to each well to a final bacteria concentration of 5×10^5 CFU/mL. Plates were incubated at 37° C. in Cytation 1 Cell Imaging Multimode Reader. Growth curves were obtained by measuring optical densities at 600 nm every 10 minutes for 18 hours using Cytation 1 Cell Imaging Multimode Reader. In addition, visual inspection of the plates was carried out after 18 hours and photographs were taken. MICs were defined as the lowest drug concentration in the microwell at which bacterial growth was not visible at the end of the incubation period. Besides MIC determination, specificity of TOUCAN 7mGe was also shown with subcultures on chromogenic media. For this purpose, 5 μL of different concentrations of each strain were inoculated onto CHROM agar Orientation Media (Becton Dickinson) and the bacterial growth of each bacteria strain tested was observed by naked eye after incubation at 37° C. for 24 hours. Finally, photographs of the chromogenic media were taken.

[3] = test system: S. aureus; experiment: Growth inhibition curves / MICs in S. aureus cultures (strain not named or summary over strains); type: cell-based, Staphylococcus aureus; conditions: Staphylococcus aureus, read-out: MIC values over all S. aureus strains tested
Protocol: as §1

Row | Compound | percentage of neutrophils in blood [1] [%] | BAS [1] | BAS % [1] [%] | EO [1] | EO % [1] [%] | HCT [1] [%] | HGB [1] [g/dL] | LYM [1] | LYM % [1] [%] | MCH [1] [pg] | MCHC [1] [g/dL] | MCV [1] [fL] | MON [1] | MON % [1] [%] | NE [1] | NE % [1] [%] | PLT [1] [K/μL] | RBC [1] [L⁻¹] | RET [1] [K/μL] | RET % [1] [%] | further results
1 | O=c1[nH]c(=O)n([C@H]2C[C@H](O)[C@@H](CO)O2)cc1F [Floxuridine, reference compound] | 30.3 | 0.0 10^9/L | 0.5 | 0.0 10^9/L | 1.0 | 40.8 | 12.8 | 1.1 10^9/L | 48.9 | 14.8 | 31.5 | 47.4 | 0.3 10^9/L | 13.5 | 0.7 10^9/L | 36.1 | 599.3 | 8.6e+12 | 384.9 | 4.5 | WBC [1]: 2.2 10^9/L; change of red blood cells (RBCs), hematocrit and hemoglobin (acute blood toxicity) [1]: reduction; MIC ([2]; Staphylococcus epidermidis, ATCC35984, S. epidermidis ATCC 35984, read-out: MIC): 0.04 µg/mL; MIC [3]: 0.005 to 0.32 µg/mL (≈ 0.0203 to 1.3 µM)
2 | mU-mU-mU-mU-T-T-Fx [TOUCAN 7mFx] | 13.8 | 0.0 10^9/L | 0.3 | 0.0 10^9/L | 1.3 | 44.5 | 14.0 | 1.6 10^9/L | 68.6 | 15.0 | 31.4 | 47.9 | 0.4 10^9/L | 15.7 | 0.3 10^9/L | 14.1 | 630.0 | 9.3e+12 | 257.7 | 2.8 | WBC [1]: 2.4 10^9/L; change of red blood cells (RBCs), hematocrit and hemoglobin (acute blood toxicity) [1]: no difference; MIC ([2]; S. epidermidis ATCC 35984): >40 µg/mL; TOUCAN % Growth inhibition ([2]; S. epidermidis ATCC 35984, mean ± SD, n = 3): 7.4 ± 4.0%; growth inhibition, dose response ([2]; S. epidermidis, all concentrations tested, FIG. 5): no growth inhibition
